Data reported in patent US10961228B2, “JAK1 selective inhibitors” (AstraZeneca AB, priority 2017, dated 2021).

Columns and labels:
[1] = target: recombinant JAK1 (amino acids 866-1154) (Homo sapiens (Human), UniProt P23458); assay: Enzyme inhibition studies, JAK1 (5 mM ATP, Caliper); assay type: biochemical
Method: (§1) JAK enzyme was expressed as N-terminal GST fusion in insect cells and purified by glutathione-affinity and size-exclusion chromatographies. Enzymes were assayed at their approximated high end of physiological ATP concentration of 5 mM, in the presence of inhibitor dosed at 30, 3, 0.3, 0.03, 0.003 and 0 μM final test concentrations.
(§2) Phosphorylated and unphosphotylated peptides were separated and quantified by a Caliper LC3000 system (Caliper Life Sciences, MA) for calculating percent inhibition.

[2] = target: recombinant JAK2 (amino acids 831-1132) (Homo sapiens (Human), UniProt O60674); assay: Enzyme inhibition studies, JAK2 (5 mM ATP, Caliper); assay type: biochemical
Method: as §1, §2

[3] = target: recombinant JAK3 (amino acids 781-1124) (Homo sapiens (Human), UniProt P52333); assay: Enzyme inhibition studies, JAK3 (5 mM ATP, Caliper); assay type: biochemical
Method: as §1, §2

[4] = system: IL-13 induced STAT6 promotor luciferase reporter in U937 monocytes (U937-STAT6-Luc); assay: Cellular interleukin (IL-13) induced JAK-STAT6-luciferase assay (pSTAT6); assay type: cell-based; conditions: Homo sapiens, U-937; IL-13 induced STAT6-luciferase, U937-STAT6-Luc cells
Method: Cells were harvested by centrifugation at 250 g for 5 min and resuspended in Assay buffer (20 mM HEPES, 1×HBSS and 0.1% BSA) to 1000 cells pr μl. For stimulation of cells was used interleukin (IL-13) also dissolved in Assay buffer to […]. […] Test and control compounds were applied to assay plates (low vol white 384-well plates) in serial dilutions from 10 mM to 0.5 nM at 5 nl pr well in DMSO.
To each well was added 4 μl cells and 4 μl interleukin (IL-13) and the plates were sealed and incubated at 37° C. for 4½ h and then at room temperature for 30 min. The assay was developed by addition of 4 μl pr well of SteadyGlo (Promega) and after […] the plates were read at an Envision plate reader with luminescence filter.

recombinant JAK3 (amino acids 781-1124), sequence (P52333 781-1124): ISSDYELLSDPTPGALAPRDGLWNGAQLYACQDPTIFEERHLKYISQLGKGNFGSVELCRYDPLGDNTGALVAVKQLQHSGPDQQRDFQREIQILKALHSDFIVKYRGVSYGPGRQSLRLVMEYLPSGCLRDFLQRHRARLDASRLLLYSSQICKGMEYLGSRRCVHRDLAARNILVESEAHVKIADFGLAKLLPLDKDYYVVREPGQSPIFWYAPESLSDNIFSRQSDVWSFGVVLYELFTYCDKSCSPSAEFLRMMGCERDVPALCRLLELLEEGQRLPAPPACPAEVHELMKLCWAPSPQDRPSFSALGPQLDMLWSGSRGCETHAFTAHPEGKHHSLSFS
recombinant JAK2 (amino acids 831-1132), sequence (O60674 831-1132): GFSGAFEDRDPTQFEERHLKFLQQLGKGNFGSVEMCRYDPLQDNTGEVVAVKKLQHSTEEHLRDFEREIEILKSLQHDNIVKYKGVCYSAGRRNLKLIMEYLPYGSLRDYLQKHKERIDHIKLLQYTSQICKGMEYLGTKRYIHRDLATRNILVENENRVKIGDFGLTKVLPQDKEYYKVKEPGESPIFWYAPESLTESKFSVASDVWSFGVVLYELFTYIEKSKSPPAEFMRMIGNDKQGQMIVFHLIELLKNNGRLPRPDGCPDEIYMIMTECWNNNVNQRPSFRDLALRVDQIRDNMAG
recombinant JAK1 (amino acids 866-1154), sequence (P23458 866-1154): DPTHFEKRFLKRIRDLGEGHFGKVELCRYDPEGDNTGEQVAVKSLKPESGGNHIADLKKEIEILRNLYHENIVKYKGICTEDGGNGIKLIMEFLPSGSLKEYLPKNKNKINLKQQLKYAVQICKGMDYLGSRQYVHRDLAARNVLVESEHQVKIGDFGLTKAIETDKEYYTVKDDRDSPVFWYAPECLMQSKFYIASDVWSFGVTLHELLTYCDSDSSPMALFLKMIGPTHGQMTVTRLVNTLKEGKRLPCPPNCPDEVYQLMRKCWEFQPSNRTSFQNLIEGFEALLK

Structure (SMILES) | IC50 [1] | IC50 [2] | IC50 [3] | IC50 [4]
CC[C@@H](C(=O)Nc1cccc2c(-c3nc(Nc4cccc(S(C)(=O)=O)c4F)ncc3C)c[nH]c12)N1C[C@H](C)N(C)[C@@H](C)C1 [Example 19, (S)-N-(3-(2-((2-fluoro-3-(methylsulfonyl)phenyl)amino)-5-methylpyrimidin-4-yl)-1H-indol-7-yl)-2-((3S,5S)-3,4,5-trimethylpiperazin-1-yl)butanamide] | 143 nM | > 30000 nM | > 30000 nM | 423 nM
CC[C@H](C(=O)Nc1cccc2c(-c3nc(Nc4cccc(S(C)(=O)=O)c4F)ncc3F)c[nH]c12)N1CCN(C)CC1 [Example 38] | 3.3 nM | 6870 nM | > 30000 nM | 42.6 nM
CC[C@@H](C(=O)Nc1cccc2c(-c3nc(Nc4cccc(S(C)(=O)=O)c4F)ncc3C)c[nH]c12)N1CCN(C)CC1C (stereo in doubt) [Example 50, (S)-2-((R)-2,4-dimethylpiperazin-1-yl)-N-(3-(2-((2-fluoro-3-(methylsulfonyl)phenyl)amino)-5-methylpyrimidin-4-yl)-1H-indol-7-yl)butanamide] | 48.5 nM | > 30000 nM | > 30000 nM | 362 nM
CC[C@H](C(=O)Nc1cccc2c(-c3nc(Nc4cccc(S(C)(=O)=O)c4F)ncc3C)c[nH]c12)N1CCN(C)CC1 [Example 14, (R)-N-(3-(2-((2-fluoro-3-(methylsulfonyl)phenyl)amino)-5-methylpyrimidin-4-yl)-1H-indol-7-yl)-2-(4-methylpiperazin-1-yl)butanamide] | < 3 nM | 2430 nM | > 30000 nM | 21 nM
COC[C@@H](C(=O)Nc1cccc2c(-c3nc(Nc4cccc(S(C)(=O)=O)c4F)ncc3F)c[nH]c12)N1C[C@@H](C)N[C@H](C)C1 [Example 32] | 482 nM | > 30000 nM | > 30000 nM | 933 nM
C[C@H](C(=O)Nc1cccc2c(-c3nc(Nc4cccc(S(C)(=O)=O)c4F)ncc3F)c[nH]c12)N1C[C@H](C)N(C)[C@@H](C)C1 [Example 8, (R)-N-(3-(5-fluoro-2-((2-fluoro-3-(methylsulfonyl)phenyl)amino)pyrimidin-4-yl)-1H-indol-7-yl)-2-((3S,5S)-3,4,5-trimethylpiperazin-1-yl)propanamide] | 24.5 nM | > 30000 nM | > 30000 nM | 78 nM
COC[C@H](C(=O)Nc1cccc2c(-c3nc(Nc4cccc(S(C)(=O)=O)c4F)ncc3C)c[nH]c12)N1C[C@H](C)N(C)[C@@H](C)C1 [Example 22, (R)-N-(3-(2-((2-fluoro-3-(methylsulfonyl)phenyl)amino)-5-methylpyrimidin-4-yl)-1H-indol-7-yl)-3-methoxy-2-((3S,5S)-3,4,5-trimethylpiperazin-1-yl)propanamide] | < 3 nM | 2560 nM | > 30000 nM | 29 nM
CC[C@@H](C(=O)Nc1cccc2c(-c3nc(Nc4cccc(S(C)(=O)=O)c4F)ncc3C)c[nH]c12)N1CCCN(C)CC1 [Example 36, (S)-N-(3-(2-((2-fluoro-3-(methylsulfonyl)phenyl)amino)-5-methylpyrimidin-4-yl)-1H-indol-7-yl)-2-(4-methyl-1,4-diazepan-1-yl)butanamide] | 70.3 nM | > 30000 nM | > 30000 nM | 167 nM
Cc1cnc(Nc2cccc(S(C)(=O)=O)c2F)nc1-c1c[nH]c2c(NC(=O)[C@@H](C)N3CCN(C)C[C@@H]3C)cccc12 [Example 58, (R)-2-((S)-2,4-dimethylpiperazin-1-yl)-N-(3-(2-((2-fluoro-3-(methylsulfonyl)phenyl)amino)-5-methylpyrimidin-4-yl)-1H-indol-7-yl)propanamide] | 48.6 nM | 25300 nM | > 30000 nM | 130 nM
CC[C@@H](C(=O)Nc1cccc2c(-c3nc(Nc4cccc(S(C)(=O)=O)c4F)ncc3F)c[nH]c12)N1C[C@H](C)N(C)[C@@H](C)C1 [Example 23, (S)-N-(3-(5-fluoro-2-(2-fluoro-3-(methylsulfonyl)phenylamino)pyrimidin-4-yl)-1H-indol-7-yl)-2-((3S,5S)-3,4,5-trimethylpiperazin-1-yl)butanamide] | 183 nM | > 30000 nM | > 30000 nM | 866 nM
COC[C@@H](C(=O)Nc1cccc2c(-c3nc(Nc4cccc(S(C)(=O)=O)c4F)ncc3C)c[nH]c12)N1C[C@@H](C)N[C@H](C)C1 [Example 28, (S)-2-((3R,5R)-3,5-dimethylpiperazin-1-yl)-N-(3-(2-((2-fluoro-3-(methylsulfonyl)phenyl)amino)-5-methylpyrimidin-4-yl)-1H-indol-7-yl)-3-methoxypropanamide] | 45.2 nM | 7410 nM | > 30000 nM | 147 nM
C[C@H](C(=O)Nc1cccc2c(-c3nc(Nc4cccc(S(C)(=O)=O)c4F)ncc3F)c[nH]c12)N1CCCN(C)CC1 [Example 46, (R)-N-(3-(5-fluoro-2-((2-fluoro-3-(methylsulfonyl)phenyl)amino)pyrimidin-4-yl)-1H-indol-7-yl)-2-(4-methyl-1,4-diazepan-1-yl)propanamide] | 19.8 nM | 17800 nM | > 30000 nM | 83 nM
CC[C@H](C(=O)Nc1cccc2c(-c3nc(Nc4cccc(S(C)(=O)=O)c4F)ncc3F)c[nH]c12)N1CCCN(C)CC1 [Example 17] | 3.6 nM | 4860 nM | > 30000 nM | 90 nM
C[C@H](C(=O)Nc1cccc2c(-c3nc(Nc4cccc(S(C)(=O)=O)c4F)ncc3F)c[nH]c12)N1C[C@H](C)N[C@@H](C)C1 [Example 11, (R)-2-((3S,5S)-3,5-dimethylpiperazin-1-yl)-N-(3-(5-fluoro-2-((2-fluoro-3-(methylsulfonyl)phenyl)amino)pyrimidin-4-yl)-1H-indol-7-yl)propanamide] | 13.1 nM | 11100 nM | > 30000 nM | 85 nM
CC[C@@H](C(=O)Nc1cccc2c(-c3nc(Nc4cccc(S(C)(=O)=O)c4F)ncc3C)c[nH]c12)N1C[C@@H](C)N[C@H](C)C1 [Example 27, (S)-2-((3R,5R)-3,5-dimethylpiperazin-1-yl)-N-(3-(2-((2-fluoro-3-(methylsulfonyl)phenyl)amino)-5-methylpyrimidin-4-yl)-1H-indol-7-yl)butanamide] | < 3 nM | 162 nM | > 30000 nM | 41 nM
Cc1cnc(Nc2cccc(S(=O)(=O)C3CC3)c2F)nc1-c1c[nH]c2c(NC(=O)[C@@H](C)N3CCN(C)CC3)cccc12 [Example 4] | < 3 nM | 1600 nM | > 30000 nM | 27 nM
Cc1cnc(Nc2cccc(S(C)(=O)=O)c2F)nc1-c1c[nH]c2c(NC(=O)[C@@H](C)N3CCN(C)CC3)cccc12 [Example 2, (R)-N-(3-(2-((2-fluoro-3-(methylsulfonyl)phenyl)amino)-5-methylpyrimidin-4-yl)-1H-indol-7-yl)-2-(4-methylpiperazin-1-yl)propanamide] | ≤ 3 nM | 7350 nM | > 30000 nM | 32 nM
CCOC[C@H](C(=O)Nc1cccc2c(-c3nc(Nc4cccc(S(C)(=O)=O)c4F)ncc3C)c[nH]c12)N1CCN(C)CC1 [Example 62, (R)-3-ethoxy-N-(3-(2-((2-fluoro-3-(methylsulfonyl)phenyl)amino)-5-methylpyrimidin-4-yl)-1H-indol-7-yl)-2-(4-methylpiperazin-1-yl)propanamide] | < 3 nM | 4140 nM | > 30000 nM | 54 nM
Cc1cnc(Nc2cccc(S(C)(=O)=O)c2F)nc1-c1c[nH]c2c(NC(=O)[C@@H](C)N3CCNCC3)cccc12 [Example 24, (R)-N-(3-(2-((2-fluoro-3-(methylsulfonyl)phenyl)amino)-5-methylpyrimidin-4-yl)-1H-indol-7-yl)-2-(piperazin-1-yl)propanamide] | 4.2 nM | 3460 nM | > 30000 nM | 42 nM
COC[C@@H](C(=O)Nc1cccc2c(-c3nc(Nc4cccc(S(C)(=O)=O)c4F)ncc3C)c[nH]c12)N1CCCN(C)CC1 [Example 43, (S)-N-(3-(2-((2-fluoro-3-(methylsulfonyl)phenyl)amino)-5-methylpyrimidin-4-yl)-1H-indol-7-yl)-3-methoxy-2-(4-methyl-1,4-diazepan-1-yl)propanamide] | 95 nM | > 30000 nM | > 30000 nM | 477 nM
CC[C@@H](C(=O)Nc1cccc2c(-c3nc(Nc4cccc(S(C)(=O)=O)c4F)ncc3F)c[nH]c12)N1CCN(C)CC1C (stereo in doubt) [Example 52, (S)-2-((R)-2,4-dimethylpiperazin-1-yl)-N-(3-(5-fluoro-2-((2-fluoro-3-(methylsulfonyl)phenyl)amino)pyrimidin-4-yl)-1H-indol-7-yl)butanamide] | 348 nM | > 30000 nM | > 30000 nM | 1070 nM
